The values below come from article PMC4945863, “Dual thio-digalactoside-binding modes of human galectins as the structural basis for the design of potent and selective inhibitors” (Scientific Reports, 2016).

Test [1] addresses galectin-3. Particulars: cited from earlier work.
The target in test [2] is T1, galectin-7 (Homo sapiens, UniProt P47929).
T1 construct: (residues 1-136); 6xHis; made in house; host or cells: Escherichia coli BL21 (DE3)
Put plainly: Isothermal titration calorimetry (ITC), galectin-7. It is filed as binding. On the procedure: (§1) Human galectins-1, -3CRD and -7 were produced in E. coli according to previous studies.
(§2) Samples for use in ITC were diluted to appropriate concentrations in dialysate buffer (25 mM Tris-HCl pH 8.0, 300 mM NaCl and 5 mM β-mercaptoethanol) saved from the ultrafiltration step. All samples were filtered with 0.22 μm cutoff filters (Millipore) and extensively degassed with stirring prior to use. […] To avoid heating effects due to differing concentration of DMSO in the injectant and protein solutions, 5% DMSO was added to the protein. Software provided by Microcal was used for the curve fitting of the experimental data as well as for calculation of the thermodynamic data. Specifically, all ITC data were corrected for the heat of dilution of the titrant by subtracting the excess heats at high molar ratios of ligands to galectins. Binding stoichiometry, enthalpy and equilibrium association constants were determined by fitting the corrected data to a bimolecular interaction model and summarised in Table 1.
(§3) Isothermal titration calorimetry (ITC). Samples for use in ITC were diluted to appropriate concentrations in dialysate buffer (25 mM
(§4) Tris-HCl pH 8.0, 300 mM NaCl and 5 mM β-mercaptoethanol) saved from the ultrafiltration step. All samples were filtered with […] cutoff filters (Millipore) and extensively degassed with stirring prior to use.
(§5) Isothermal titration calorimetry was performed using MicroCal
(§6) Auto-iTC200 (MicroCal, INc., Northampton, MA) at 298K. […]
(§7) order to avoid heating effects due to differing concentration of DMSO in the injectant and protein solutions, 5% DMSO was added to the protein.
(§8) Software provided by Microcal was used for the curve fitting of the experimental data as well as for calculation of the thermodynamic data.
(§9) Specifically, all ITC data were corrected for the heat of dilution of the titrant by subtracting the excess heats at high molar ratios of ligands to galectins. Binding stoichiometry, enthalpy and equilibrium association constants were determined by fitting the corrected data to a bimolecular
A general note: In ITC the heat of successive injections is recorded.

For test [3], the target named is T2, galectin-3 (Homo sapiens, UniProt P17931).
T2 construct: CRD domain of galectin-3 (residues 113-250); 6xHis; made in house; host or cells: Escherichia coli BL21 (DE3)
Briefly: Isothermal titration calorimetry (ITC), galectin-3. It is filed as binding. On the procedure: as §1, §2, §3, §4, §5, §6, §7, §8, §9

Test [4] deals with T3, galectin-1 (Homo sapiens, UniProt P09382).
T3 construct: full-length galectins-1 (residues 1-135); 6xHis; made in house; host or cells: Escherichia coli BL21 (DE3)
Briefly: Isothermal titration calorimetry (ITC), galectin-1. Type of test: binding. On the procedure:
as §1, §2, §3, §4, §5, §6, §7, §8, §9

T1 sequence (P47929 whole entry, the tested form may be a part): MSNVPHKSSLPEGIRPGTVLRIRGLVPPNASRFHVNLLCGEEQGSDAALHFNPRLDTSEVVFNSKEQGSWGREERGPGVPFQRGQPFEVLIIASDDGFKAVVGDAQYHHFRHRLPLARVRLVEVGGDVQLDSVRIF
T3 sequence (P09382 whole entry, the tested form may be a part): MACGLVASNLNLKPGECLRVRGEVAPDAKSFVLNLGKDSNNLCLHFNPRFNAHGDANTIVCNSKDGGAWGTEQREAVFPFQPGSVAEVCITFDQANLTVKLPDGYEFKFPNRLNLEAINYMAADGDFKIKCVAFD
T2 sequence (P17931 113-250): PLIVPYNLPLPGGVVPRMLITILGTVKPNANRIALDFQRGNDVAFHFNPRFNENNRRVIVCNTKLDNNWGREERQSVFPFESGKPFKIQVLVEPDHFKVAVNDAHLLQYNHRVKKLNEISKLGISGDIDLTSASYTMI

Turning to “3′-(4-methoxy-2,3,5,6-tetrafluorobenzamido)-N-acetyl-lactosamine [L3]”, the Kd in test [1] is 3.3 µM.
On to `OC[C@H]1O[C@@H](S[C@@H]2O[C@H](CO)[C@H](O)[C@H](n3cc(-c4cccc(F)c4)nn3)[C@H]2O)[C@H](O)[C@@H](O)[C@H]1O` [TAZTDG, 3-deoxy-3-(4-[m-fluorophenyl]-1H-1,2,3-triazol-1-yl)-thio-digalactoside], for which the “-TΔS” value in test [2] (298 K) came out at 4.4 ± 0.04 kcal/mol; in test [3] (ITC, 298 K), 6.4 ± 1.02 kcal/mol; in test [4] (298 K), 8.6 ± 0.51 kcal/mol. Also, the equilibrium dissociation constant (Kd) in test [2] (298 K) came to 87 ± 3.21 µM; in test [3] (ITC, 298 K, galectin-3CRD) it was 0.84 ± 0.41 µM; in test [4] (298 K) it was 3.24 ± 0.3 µM. The “n (stoichiometry)” value in test [2] (298 K) worked out at 0.89 ± 0.01; in test [3] (ITC, 298 K) it was 0.92 ± 0.08; in test [4] (298 K), 1.06 ± 0.01. Moreover, the ΔG in test [2] (298 K) is -5.5 ± 0.01 kcal/mol; in test [3] (ITC, 298 K), -8.3 ± 0.25 kcal/mol; in test [4] (298 K), -7.5 ± 0.05 kcal/mol. For the same molecule, the ΔH in test [2] (298 K) was -10.0 ± 0.04 kcal/mol; in test [3] (ITC, 298 K), -14.7 ± 0.99 kcal/mol; in test [4] (298 K), -16.1 ± 0.51 kcal/mol. Further, the Relative affinity turned out to be 6.6 in test [2] (298 K, relative to TDG = 1); 89.7 in test [3] (ITC, 298 K, relative to TDG = 1); 20.7 in test [4] (298 K, relative to TDG = 1). Besides, the “ΔΔH(TAZTDG–TDG)” value is -2.4 kcal/mol in test [2] (galectin-7); -5.3 kcal/mol in test [3] (ITC, galectin-3); -4.5 kcal/mol in test [4] (galectin-1).
For `OC[C@H]1O[C@@H](S[C@@H]2O[C@H](CO)[C@H](O)[C@H](n3cc(-c4cccc(F)c4)nn3)[C@H]2O)[C@H](O)[C@@H](n2cc(-c3cccc(F)c3)nn2)[C@H]1O` [TD139, 3,3’-deoxy-3,3’-bis-(4-[m-fluorophenyl]-1H-1,2,3-triazol-1-yl)-thio-digalactoside], in test [2] (298 K), the “-TΔS” value was 3.2 ± 0.09 kcal/mol, the Kd came to 38 ± 0.71 µM, the “n (stoichiometry)” value is recorded as 0.99 ± 0.10 and the ΔG was -6.1 ± 0.06 kcal/mol. In test [2] (galectin-7), the “difference in binding free energy ΔΔG(TD139-TDG)” value was -1.7 kcal/mol, the “increase in affinity compared with TDG binding” value is 15 fold and the “ΔΔH(TD139–TAZTDG)” value was 0.7 kcal/mol. For the same molecule, in test [3] (ITC, 298 K), the “-TΔS” value was 8.3 ± 0.90 kcal/mol, the “n (stoichiometry)” value is 0.96 ± 0.01, the ΔG is -9.9 ± 0.37 kcal/mol and the ΔH was -18.2 ± 0.82 kcal/mol. In addition, in test [3] (ITC, galectin-3), the “binding enhancement compared with TDG” value is on record as ~ 1000 fold, the “change in binding free energy ΔΔG(TD139-TDG)” value was -4.3 kcal/mol, the “enthalpy change ΔΔH(TD139-TDG)” value is -8.8 kcal/mol and the “entropy change –TΔΔS(TD139-TDG)” value came to 4.6 kcal/mol. For the same molecule, in test [3] (ITC, galectin-3), the “ΔΔH(TD139–TAZTDG)” value was -3.5 kcal/mol. Also, the “increase in binding affinity compared with L3” value in test [3] (galectin-3, versus literature Kd of L3) turned out to be 50 fold. For the same molecule, in test [4] (298 K), the “-TΔS” value was 7.6 ± 0.43 kcal/mol, the “n (stoichiometry)” value is reported as 0.96 ± 0.04 and the ΔH was -16.7 ± 0.40 kcal/mol. In addition, in test [4] (galectin-1), the “binding enhancement compared with binding to TDG” value was ~ 300 fold and the “ΔΔH(TD139–TAZTDG)” value was -0.6 kcal/mol.
Regarding `OC[C@H]1O[C@@H](S[C@@H]2O[C@H](CO)[C@H](O)[C@H](O)[C@H]2O)[C@H](O)[C@@H](O)[C@H]1O` [TDG, thio-digalactoside], in test [2] (298 K), the “-TΔS” value is listed as 3.2 ± 0.55 kcal/mol, the “n (stoichiometry)” value stood at 0.94 ± 0.02, the ΔG is -4.4 ± 0.06 kcal/mol and the ΔH is -7.6 ± 0.55 kcal/mol. Also, in test [3] (ITC, 298 K), the “-TΔS” value is listed as 3.7 ± 0.48 kcal/mol, the “n (stoichiometry)” value came out at 1.02 ± 0.05 and the ΔH was -9.4 ± 0.48 kcal/mol. For the same molecule, in test [4] (298 K), the “-TΔS” value stood at 5.9 ± 0.27 kcal/mol, the “n (stoichiometry)” value amounted to 1.02 ± 0.10 and the ΔH is -11.6 ± 0.26 kcal/mol.

The term Kd denotes a measure of binding affinity in units of concentration.
